Source: patent US8357833B2, “Corn plants and seed enhanced for asparagine and protein” (priority 2007, dated 2013)

Key:
[1] = target: T1, Zea mays asparagine synthetase Zm AsnS2 (SEQ ID NO: 4, encoded by SEQ ID NO: 3) (Zea mays, UniProt B5U8J7); assay: Kinetics of recombinant his-tagged, refolded maize asparagine synthetase AsnS2 (substrate titration, asparagine by HPLC); format: biochemical; conditions: Zm AsnS2; 100 mM Hepes, pH 8.0, 10 mM MgCl2; read-out: Km(NH4^+)
T1 construct: 606 aa
T1 sequence (B5U8J7 1-606): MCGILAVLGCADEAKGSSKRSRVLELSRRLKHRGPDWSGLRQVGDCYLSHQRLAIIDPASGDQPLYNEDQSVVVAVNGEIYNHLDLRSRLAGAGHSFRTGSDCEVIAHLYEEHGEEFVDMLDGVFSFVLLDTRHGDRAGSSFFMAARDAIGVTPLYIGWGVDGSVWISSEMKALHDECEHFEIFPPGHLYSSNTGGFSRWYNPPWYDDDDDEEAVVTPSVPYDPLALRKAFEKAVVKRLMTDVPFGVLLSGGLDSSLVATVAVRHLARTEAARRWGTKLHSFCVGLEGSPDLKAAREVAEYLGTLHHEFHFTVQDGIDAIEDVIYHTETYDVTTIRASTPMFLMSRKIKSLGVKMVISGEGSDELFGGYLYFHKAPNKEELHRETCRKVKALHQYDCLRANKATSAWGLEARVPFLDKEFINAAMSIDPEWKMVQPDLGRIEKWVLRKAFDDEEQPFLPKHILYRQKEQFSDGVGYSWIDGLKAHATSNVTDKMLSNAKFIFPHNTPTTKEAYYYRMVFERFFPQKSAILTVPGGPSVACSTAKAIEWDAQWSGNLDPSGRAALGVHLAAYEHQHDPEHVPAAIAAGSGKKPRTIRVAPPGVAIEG
Experimental: (§1) The effect of expression of asparagine synthetase genes on asparagine synthetase activity was measured in transgenic events of pMON79706 and pMON92870. Frozen, ground leaf tissue was aliquoted (200-400 mg) into wells from a precooled 96 deep-well plate. Protein was extracted in Buffer A (100 mM Hepes-OH, pH 8.0, 0.1 mM EDTA, 10 mM MgCl2, 2 mM aspartate, 0.5 mM DTT, 67 mM mercaptoethanol, 20% (v/v) glycerol, 0.1 mM ATP, 1% (v/v) P9599 (Sigma Company), 25 mM KCl). A small amount of sand was added to each well. Buffer A was then added to the leaf tissue in the wells at a ratio of 4:1 (buffer:tissue). The plates were then agitated in a paint shaker for 2 min. to mix the sample and then centrifuged at 5000×g for 10 minutes. The supernatant (100-200 μL) was desalted in a 96-well macro spin plate (SNS S025L, The Nest Group Inc., Southboro, Mass.) equilibrated in buffer A. The supernatant was then either assayed immediately or frozen in liquid nitrogen and maintained at −80° C. until used. […] The mixture was then filtered to remove precipitate and asparagine was measured by HPLC. […]

[2] = target: T2, Zea mays asparagine synthetase Zm AsnS1 (SEQ ID NO: 2, encoded by SEQ ID NO: 1) (Zea mays, UniProt B4FFJ0); assay: Kinetics of recombinant his-tagged, refolded maize asparagine synthetase AsnS1 (substrate titration, asparagine by HPLC); format: biochemical; conditions: 100 mM Hepes, pH 8.0, 10 mM MgCl2, read-out: Km(NH4^+)
T2 sequence (B4FFJ0 with tags, fused parts or gaps): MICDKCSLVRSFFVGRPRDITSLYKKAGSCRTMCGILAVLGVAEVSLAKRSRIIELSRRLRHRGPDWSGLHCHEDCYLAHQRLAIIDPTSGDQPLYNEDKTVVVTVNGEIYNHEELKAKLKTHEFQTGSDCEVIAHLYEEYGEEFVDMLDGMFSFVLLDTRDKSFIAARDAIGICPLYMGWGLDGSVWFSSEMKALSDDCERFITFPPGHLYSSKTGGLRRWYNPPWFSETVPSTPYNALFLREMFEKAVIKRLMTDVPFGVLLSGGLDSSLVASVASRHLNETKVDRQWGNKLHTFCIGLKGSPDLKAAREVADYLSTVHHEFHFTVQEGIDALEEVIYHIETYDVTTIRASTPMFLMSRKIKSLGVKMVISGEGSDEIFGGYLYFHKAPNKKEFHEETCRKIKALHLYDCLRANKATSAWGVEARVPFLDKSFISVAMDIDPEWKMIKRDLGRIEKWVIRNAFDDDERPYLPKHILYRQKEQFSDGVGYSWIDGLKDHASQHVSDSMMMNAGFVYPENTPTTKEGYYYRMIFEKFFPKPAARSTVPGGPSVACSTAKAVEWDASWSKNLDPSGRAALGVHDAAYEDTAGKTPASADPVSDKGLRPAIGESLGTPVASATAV
Experimental: as §1

N [NH4^+]
Km [1]: 0.75 mM | Km [2]: 9.9 mM
